System: E1, UbcH5c, UbcH7, HOIL-1L, RNF144A, HHARI, TRIAD3A RBR domains, NEDD4L, E6AP, OTULIN, CYLD-1
Test: LC-MS-based enzyme counter screen
Assay type: binding
Settings: 10-fold stoichiometric excess, 24 h incubation
Procedure: 0.1% formic acid in water. The samples were analyzed on a Q Exactive MS (Thermo Fisher) coupled to an Easy-nLC chromatographic system (Thermo Fisher) with a nano ESI source (Thermo Fisher). Each sample (2 µL) was injected and trapped on a C18 Acclaim pepMap 100 enrichment column (75 µm id × 2 cm, 3 µm nanoviper, Thermo Fisher). The samples were transferred to a C18 Acclaim PepMap RSLC analytical column (75 µm id × 15 cm, 2 µm, Thermo Fisher) at 300 nL/min. Mobile phase A (0.1% Formic acid in water, v/v); mobile phase B (0.1% […]
min (70-95% B), 56-61 min (95% B). The nanospray ionisation source was operated in the positive mode with spray voltage set at 2 kV, and heated capillary at 250 °C. The Q Exactive was operated in the data dependent mode and the top 15 most intense ions were subjected to HCD fragmentation with normalised collision energy set at 26%. The MS1 scans were performed at a resolution of 70 000 from 400-1600 m/z, automatic gain control (AGC) value 3 e6, maximum injection time 100 ms. […]
Compounds (1) and (5) were screened against E1, the E2s UbcH5c and UbcH7, the RBR domains of the E3 ligases HOIP, HOIL-1L, RNF144A, HHARI and TRIAD3A, the HECT E3 ligases NEDD4L and E6AP, and the DUBs OTULIN and CYLD-1. […] The samples were analyzed after 0.5 and 24 h incubation. […]

Q: With `COC(=O)/C=C/CNC(=O)c1cc2c([nH]c1=O)CCC2` [Compound 5] as the compound, how does the “labeling of all other proteins screened” value read?
A: < 40%
